US11479571B2 (priority 2016, dated 2022)

How the values were obtained:
[1] = tested on: Vesicular stomatitis virus (VSV) particles encoding luciferase and pseudotyped with EboV GP; assay: microbe, parasite or virus in culture; assay type: cell-based, Ebola virus; conditions: for inhibition at 10 µM: compound concentration 10 μM; for inhibition at 2 µM: compound concentration 2 μM

SMILES | melting point [°C] | inhibition at 10 µM [1] [%] | inhibition at 2 µM [1] [%]
O=C(OCc1ccccc1)N1CCN(C(=O)c2ccc3nc(-c4ccccn4)[nH]c3c2)CC1 | 165 |  | 
FC(F)(F)c1ccc(CN2CCN(Cc3ccc4nc(-c5ccccc5)[nH]c4c3)CC2)cc1 | 178 |  | 
FC(F)(F)c1ccc(CN2CCN(Cc3ccc4nc(-c5cccnc5)[nH]c4c3)CC2)cc1 | 138 |  | 
O=C(c1ccc2nc(-c3ccccc3)[nH]c2c1)N1CCN(Cc2ccc(C(F)(F)F)cc2)CC1 | 220 |  | 
O=C(c1ccc2nc(C(c3ccccc3)c3ccccc3)[nH]c2c1)N1CCN(Cc2ccc(C(F)(F)F)cc2)CC1 | 148 |  | 
FC(F)(F)Oc1cccc(CN2CCN(Cc3ccc4nc(C(c5ccccc5)c5ccccc5)[nH]c4c3)CC2)c1 | 86 |  | 
FC(F)(F)Oc1cccc(CN2CCN(Cc3ccc4nc(-c5cccnc5)[nH]c4c3)CC2)c1 | 110 |  | 
FC(F)(F)Oc1cccc(CN2CCN(Cc3ccc4nc(-c5ccccn5)[nH]c4c3)CC2)c1 | 65 |  | 
O=C(c1ccc2nc(C(c3ccccc3)c3ccccc3)[nH]c2c1)N1CCN(Cc2cccc(OC(F)(F)F)c2)CC1 | 76 |  | 
O=C(c1ccc2nc(-c3ccccn3)[nH]c2c1)N1CCN(Cc2cccc(OC(F)(F)F)c2)CC1 | 100 |  | 
FC(F)(F)Oc1ccc(CN2CCN(Cc3ccc4nc(-c5cccnc5)[nH]c4c3)CC2)cc1 | 88 |  | 
FC(F)(F)Oc1ccc(CN2CCN(Cc3ccc4nc(-c5ccccn5)[nH]c4c3)CC2)cc1 | 64 |  | 
O=C(c1ccc2nc(C(c3ccccc3)c3ccccc3)[nH]c2c1)N1CCN(Cc2ccc(OC(F)(F)F)cc2)CC1 | 120 |  | 
O=C(c1ccc2nc(-c3ccccn3)[nH]c2c1)N1CCN(Cc2ccc(OC(F)(F)F)cc2)CC1 | 190 |  | 
Cc1ccc(NC(=O)N2CCN(Cc3ccc4nc(-c5cccnc5)[nH]c4c3)CC2)cc1 | 174 |  | 
O=C(Nc1ccc(C(F)(F)F)cc1)N1CCN(Cc2ccc3nc(C(c4ccccc4)c4ccccc4)[nH]c3c2)CC1 | 172 |  | 

SMILES | melting point [°C] | inhibition at 10 µM [1] [%] | inhibition at 2 µM [1] [%]
O=C(COc1ccc(Cl)cc1)N1CCN(Cc2ccc3nc(C(c4ccccc4)c4ccccc4)[nH]c3c2)CC1 | 194 |  | 
O=C(COc1ccc(Cl)cc1)N1CCN(Cc2ccc3nc(-c4ccccn4)[nH]c3c2)CC1 | 138 |  | 
COC(=O)c1ccc(COc2ccccc2CN2CCN(Cc3ccc4nc(-c5ccccc5)[nH]c4c3)CC2)cc1 [Compound E11, N1-[[2-[(4-methoxycarbonylphenyl)methoxy]phenyl]methyl]-N4-[(2-phenyl-benzimidazol-5-yl)methyl]-piperazine] |  | 95 | 
COC(=O)c1ccc(COc2ccccc2CN2CCN(Cc3ccc4nc(-c5ccccn5)[nH]c4c3)CC2)cc1 [Compound E14, N1-[[2-[(4-methoxycarbonylphenyl)methoxy]phenyl]methyl]-N4-[[2-(2-pyridyl)-benzimidazol-5-yl]methyl]-piperazine] |  | 80 | 
COC(=O)c1ccc(COc2ccccc2CN2CCN(Cc3ccc4nc(-c5ccc(C(F)(F)F)cc5)[nH]c4c3)CC2)cc1 [Compound E15, N1-[[2-[4-(trifluoromethyl)phenyl]-benzimidazol-5-yl]methyl]-N4-[[2-[(4-methoxycarbonylphenyl)methoxy]phenyl]methyl]-piperazine] |  | 93.5 | 2
COC(=O)c1ccc(COc2ccccc2CN2CCN(Cc3ccc4nc(-c5cccc(C(F)(F)F)c5)[nH]c4c3)CC2)cc1 [Compound E16, N1-[[2-[3-(trifluoromethyl)phenyl]-benzimidazol-5-yl]methyl]-N4-[[2-[(4-methoxycarbonylphenyl)methoxy]phenyl]methyl]-piperazine] | 102 | 91.6 | 64.1
COC(=O)c1ccc(COc2ccccc2CN2CCN(C(=O)c3ccc4nc(-c5ccccc5)[nH]c4c3)CC2)cc1 [Compound E17, N1-[[2-[(4-methoxycarbonylphenyl)methoxy]phenyl]methyl]-N4-(2-phenyl-benzimidazole-5-carbonyl)-piperazine] | 255 | < 20 | 
COC(=O)c1ccc(COc2ccccc2CN2CCN(C(=O)c3ccc4nc(C(c5ccccc5)c5ccccc5)[nH]c4c3)CC2)cc1 [Compound E18, N1-(2-benzhydryl-benzimidazole-5-carbonyl)-N4-[[2-[(4-methoxycarbonylphenyl)methoxy]phenyl]methyl]-piperazine] | 196 | < 20 | 
COC(=O)c1ccc(COc2ccccc2CN2CCN(C(=O)c3ccc4nc(-c5cccnc5)[nH]c4c3)CC2)cc1 [Compound E19, N1-[[2-[(4-methoxycarbonylphenyl)methoxy]phenyl]methyl]-N4-[2-(3-pyridyl)-benzimidazole-5-carbonyl]-piperazine] |  | < 20 | 
COC(=O)c1ccc(COc2ccccc2CN2CCN(C(=O)c3ccc4nc(-c5ccccn5)[nH]c4c3)CC2)cc1 [Compound E20, N1-[[2-[(4-methoxycarbonylphenyl)methoxy]phenyl]methyl]-N4-[2-(2-pyridyl)-benzimidazole-5-carbonyl]-piperazine] | 96 | < 20 | 
FC(F)(F)c1ccc(CN2CCN(Cc3ccc4nc(C(c5ccccc5)c5ccccc5)[nH]c4c3)CC2)cc1 [Compound E22, N1-[(2-benzhydryl-benzimidazol-5-yl)methyl]-N4-[4-(trifluoromethyl)benzyl]-piperazine] | 236 | 80 | < 20
FC(F)(F)Oc1cccc(CN2CCN(Cc3ccc4nc(-c5ccccc5)[nH]c4c3)CC2)c1 [Compound E29, N1-[3-(trifluoromethoxy)benzyl]-N4-[(2-phenyl-benzimidazol-5-yl)methyl]-piperazine] | 80 | 80 | < 20
O=C(Nc1ccc(C(F)(F)F)cc1)N1CCN(Cc2ccc3nc(-c4ccccn4)[nH]c3c2)CC1 [Compound E52, N1-[[2-(2-pyridyl)-benzimidazol-5-yl]methyl]-N4-[[4-(trifluoromethyl)phenyl]carbamoyl]-piperazine] |  | 82.9 | 64.3
CCOP(=O)(Cc1ccc(COc2ccccc2CN2CCN(Cc3ccc4nc(-c5cccc(C(F)(F)F)c5)[nH]c4c3)CC2)cc1)OCC [Compound E57] |  | < 20 | 
CCOP(=O)(Cc1cccc(COc2ccccc2CN2CCN(Cc3ccc4nc(-c5cccc(C(F)(F)F)c5)[nH]c4c3)CC2)c1)OCC [Compound E59] |  | < 20 | 
